Test [1] relates to Jurkat cells. Briefly: Electroporation of Jurkat cells with and without trehalose in iso-osmolar working medium. The settings on record: 290 mOsm. It is filed as cell-based, human. How it is done:
Electroporation of Cells with and without Trehalose in an Iso-osmolar Working Medium.
Essentially, the same experimental conditions as in Example 1 applied, except that the osmolarity of the pulse medium was adjusted to iso-osmolar conditions by adding inositol to 290 mOsm.
Again, α,α-trehalose was added in the following concentrations: 0 mM and 40 mM.

Test [2] deals with Jurkat cells. Nature of the test: Electroporation of Jurkat cells with and without trehalose in hypo-osmolar working medium. It is filed as cell-based, human. The settings on record: 100 mOsm. How it is done:
Electroporation of Cells with and without Trehalose in a Hypo-osmolar Working Medium.
A phosphate buffer with 1.15 mM K2HPO4/KH2PO4 buffer, pH 7.2, was used as a pulse medium. KCl at a concentration of 10 mM (α=1.5−1.6 mS/cm) was added as a conducting salt. After this, trehalose at the respective concentration was added to the pulse medium. Osmolarity was adjusted to 100 mOsm by the addition of inositol, so as to obtain a hypo-osmolar solution.
Jurkat cells that are cells of a human T-lymphocytes line were used. 40 μg/ml propidium iodide, which is a membrane-impermeable DNA dye, was added as the material to be transferred.
Pulse application took place after 10 minutes of incubation prior to pulse application, in the pulse medium at room temperature (cell density: 2-3×10^6 cells/ml). Pulse duration was 20 μs.
Electroporation took place in an Eppendorf multiporator. After pulse application, the pores were left to reseal for 10 min at room temperature.
Electropermeabilisation took place at the following trehalose concentrations: 0 mM and 40 mM (α,α-trehalose).
Pulsing takes place at 4° C. or at room temperature. This can be single pulsing; however, multiple pulsing involving up to 3 pulses can at times be advantageous.

SMILES strings stand for the structures.

As for `OC[C@H]1O[C@H](O[C@H]2O[C@H](CO)[C@@H](O)[C@H](O)[C@H]2O)[C@H](O)[C@@H](O)[C@@H]1O` [trehalose, α,α-trehalose], the survival rate entry in test [1] (40 mM trehalose vs 0 mM, above all at high field strength, FIG. 3) is listed as “untreated cells (0 mM, outline squares) is many times less than in the case of cells treated with 40 mM trehalose”. Besides, the propidium iodide uptake entry in test [1] (40 mM trehalose vs 0 mM, FIG. 3) is listed as “varies less markedly”; in test [2] (40 mM trehalose vs 0 mM, 40 μg/ml propidium iodide, FIG. 1), “only slightly influenced”. For the same compound, the pulse efficiency result in test [1] (40 mM trehalose, increasing field strength, FIG. 4) was “gradual increase in the pulse efficiency”. The “pulse efficiency (product of propidium iodide uptake and survival rate)” value in test [2] (40 mM trehalose vs control without trehalose, increasing field strength, FIG. 2) is “significantly above the values of a control sample”.
